Assay: UV-Vis spectroscopy of the rate of dissolution of dyes in water
Type: physicochemical
Conditions: excess dye in cuvette, 320-800 nm, 0 to 10 minutes
Procedure: An excess mass of both crystal violet and violet stearate was added to separate, clean polystyrene cuvettes. The spectrometer was calibrated to measure absorbance over the range of 320-800 nm. A background UV-Vis spectrum was then collected using a clean cuvette filled with distilled water (this spectrum is later subtracted from the dye solution spectrums to give the absorbance resulting from the dye only). The dye containing cuvettes were then loaded into the UV-Vis spectrometer. Water was then carefully syringed down the side of the first cuvette until the cuvettes were filled, and the spectrum immediately collected upon addition. […] The 20 minutes spectra are not included due to the fact they are very similar to the 10 minute spectra for both dyes tested.

With `CN(C)c1ccc(C(=C2C=CC(=[N+](C)C)C=C2)c2ccc(N(C)C)cc2)cc1` [Crystal Violet, crystal violet] the “Change of UV-Vis absorbance spectra over time after addition of water (rate of dissolution)” value was “do not change over time at all”.

With `CCCCCCCCCCCCCCCCCC(=O)[O-].CN(C)c1ccc(C(=C2C=CC(=[N+](C)C)C=C2)c2ccc(N(C)C)cc2)cc1` [Violet Stearate] the “Change of UV-Vis absorbance spectra over time after addition of water (rate of dissolution)” value was “definite increase in absorbance over time”.

— patent US20210308319A1, “TRANSITION TO TRANSLUCENT SUTURES” (University of Pittsburgh - Of the Commonwealth System of …, priority 2018, published 2021)
